ChEMBL document CHEMBL1201862, “PubChem BioAssay data set” (2004)
Calls of active or inactive are those of the source.

Legend:
[1] = test system: Streptococcus sp. 'group A'; assay: growth inhibition of control SK(-) GAS strain, dose response, counter-screen for streptokinase expression inhibitor project, luminescence, kanamycin, BacTiterGlo, confirmation (AID 1900); assay type: functional, organism-based
Streptococcus [2] = assay: Luminescence Microorganism-Based Dose Response Follow up to Identify Compounds Cytotoxic to Streptococcus. [Related pubchem assays: 1677 (Project Summary), 1915, 1914, 1902 (Retest at Dose), 1900 (Counter Screen), 1662 (Primary HTS)]; assay type: functional, organism-based
Streptokinase A = biological target: T1, Streptokinase A (Streptococcus pyogenes serotype M1, UniProt P10520); assay: S. pyogenes streptokinase expression inhibitors, potency, dose response, plasminogen activation absorbance, OD405 (AID 1914); assay type: functional, Streptococcus pyogenes M1 GAS;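 note: secreted streptokinase activity via plasminogen activation per viability signal from cell pellet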
T1 sequence (P10520 whole entry): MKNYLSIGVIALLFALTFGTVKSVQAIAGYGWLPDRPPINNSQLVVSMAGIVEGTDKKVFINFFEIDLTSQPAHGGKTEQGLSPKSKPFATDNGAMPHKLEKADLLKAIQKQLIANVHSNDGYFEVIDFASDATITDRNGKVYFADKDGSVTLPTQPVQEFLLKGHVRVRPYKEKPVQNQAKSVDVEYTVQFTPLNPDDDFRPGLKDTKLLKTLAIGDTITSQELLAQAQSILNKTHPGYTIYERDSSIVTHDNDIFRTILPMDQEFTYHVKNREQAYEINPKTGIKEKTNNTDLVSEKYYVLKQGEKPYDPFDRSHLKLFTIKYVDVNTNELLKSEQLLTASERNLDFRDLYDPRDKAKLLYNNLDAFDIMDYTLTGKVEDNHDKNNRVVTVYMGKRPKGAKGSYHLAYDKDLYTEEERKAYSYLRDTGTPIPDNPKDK

Streptococcus [3] = assay: Group A Streptococcus viability loss, dose response, counter-screen for streptokinase expression inhibitor project, luminescence, BacTiterGlo (AID 1915); assay type: functional, organism-based;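 note: potency for reduction of bacterial viability or growth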
[4] = biological target: Melanin-concentrating hormone receptor 1 (Homo sapiens, UniProt Q99705); assay: Fluorescence-based counterscreen for antagonists of the G-protein coupled receptor 7 (GPR7): cell-based high throughput dose response assay to identify antagonists of the melanin-concentrating hormone receptor 1 (MCHR1).; assay type: functional
[5] = biological target: T2, Short transient receptor potential channel 4 (Mus musculus, UniProt Q9QUQ5); assay: TRPC4 positive allosteric modulators, dose response, cell-based, HEK293 TRPC4/mu-opioid, Fluo-4 calcium, EC20 DAMGO (AID 434941); assay type: functional
T2 sequence (Q9QUQ5 whole entry): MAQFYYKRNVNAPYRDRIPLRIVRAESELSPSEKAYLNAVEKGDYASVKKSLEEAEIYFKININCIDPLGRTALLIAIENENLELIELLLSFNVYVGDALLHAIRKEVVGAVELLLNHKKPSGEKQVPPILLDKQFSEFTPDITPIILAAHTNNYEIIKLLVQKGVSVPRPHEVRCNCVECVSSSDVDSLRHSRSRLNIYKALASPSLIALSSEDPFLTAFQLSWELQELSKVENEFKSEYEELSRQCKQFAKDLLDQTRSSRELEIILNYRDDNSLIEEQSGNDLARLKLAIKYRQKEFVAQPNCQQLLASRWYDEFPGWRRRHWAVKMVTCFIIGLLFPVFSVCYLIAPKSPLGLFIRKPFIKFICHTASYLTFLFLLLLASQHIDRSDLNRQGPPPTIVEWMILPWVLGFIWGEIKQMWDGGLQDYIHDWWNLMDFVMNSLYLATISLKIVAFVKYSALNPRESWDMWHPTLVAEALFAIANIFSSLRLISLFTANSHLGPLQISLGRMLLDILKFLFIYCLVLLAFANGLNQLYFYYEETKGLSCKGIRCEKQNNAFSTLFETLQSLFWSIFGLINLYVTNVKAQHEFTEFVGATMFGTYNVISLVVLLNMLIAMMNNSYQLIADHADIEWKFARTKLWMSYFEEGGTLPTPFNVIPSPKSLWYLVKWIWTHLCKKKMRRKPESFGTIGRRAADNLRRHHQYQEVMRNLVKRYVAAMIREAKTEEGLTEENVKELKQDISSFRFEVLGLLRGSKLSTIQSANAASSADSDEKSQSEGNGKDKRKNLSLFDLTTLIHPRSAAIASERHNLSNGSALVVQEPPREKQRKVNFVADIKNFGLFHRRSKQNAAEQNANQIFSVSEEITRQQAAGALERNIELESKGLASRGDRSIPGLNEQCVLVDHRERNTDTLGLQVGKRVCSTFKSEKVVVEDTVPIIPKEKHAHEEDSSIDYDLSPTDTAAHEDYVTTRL

[6] = biological target: Intestinal-type alkaline phosphatase (Homo sapiens, UniProt P09923); assay: Dose Response confirmation of uHTS hits from a small molecule inhibitors of human intestinal alkaline phosphatase via a luminescent assay. [Related pubchem assays (depositor defined):AID2544, AID2574]; assay type: functional
HeLa = assay: HeLa cell cytotoxicity, dose response, cytotoxicity control, 24 h, cherry-picked samples (AID 504726); assay type: functional, cell-based; settings: Homo sapiens;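 note: potency for cytotoxicity as loss of luminescence signal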
[7] = control 3'UTR Renilla luciferase suppression, dose response, counter-screen for Shn3 inhibitor project, cell-based, Clone20-Shn3RL, cherry-picked (AID 624133); assay type: functional
[8] = Luminescence Cell-Based Dose Retest to Confirm Inhibitors of Cancer Stem Cells. [Related pubchem assays (depositor defined):AID2717, AID2721]; assay type: functional; settings: Homo sapiens
[9] = Shn3 3'UTR reporter inhibitors, dose response, cell-based, Clone20 osteoblasts, firefly luciferase, cherry-picked (AID 624132); assay type: functional;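 note: firefly luciferase luminescence from reporter carrying the Shn3 3'UTR in osteoblasts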
Hexokinase = Hexokinase (Trypanosoma brucei, UniProt Q38C41); assay: Confirmation assay for inhibitors of Trypanosoma brucei hexokinase 1-Analogue-first series. [Related pubchem assays (depositor defined):AID1430, AID1632, AID2516, AID2560, AID2579, AID2600, AID449725, AID492951]; assay type: functional
Hexokinase, sequence (Q38C41 whole entry): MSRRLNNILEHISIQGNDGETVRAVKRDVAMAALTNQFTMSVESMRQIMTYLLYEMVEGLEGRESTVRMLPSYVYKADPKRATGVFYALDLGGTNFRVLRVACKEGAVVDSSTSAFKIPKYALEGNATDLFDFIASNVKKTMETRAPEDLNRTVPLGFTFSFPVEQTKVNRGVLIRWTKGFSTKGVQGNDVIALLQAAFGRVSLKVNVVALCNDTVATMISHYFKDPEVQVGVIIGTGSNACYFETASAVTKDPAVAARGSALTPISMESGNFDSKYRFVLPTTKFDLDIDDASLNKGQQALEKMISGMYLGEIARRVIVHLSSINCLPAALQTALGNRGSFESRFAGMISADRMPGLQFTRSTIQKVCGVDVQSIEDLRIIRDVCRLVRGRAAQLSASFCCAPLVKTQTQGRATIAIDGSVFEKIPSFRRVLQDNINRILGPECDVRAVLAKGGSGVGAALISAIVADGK

Melanin-concentrating hormone receptor 1, sequence (Q99705 whole entry): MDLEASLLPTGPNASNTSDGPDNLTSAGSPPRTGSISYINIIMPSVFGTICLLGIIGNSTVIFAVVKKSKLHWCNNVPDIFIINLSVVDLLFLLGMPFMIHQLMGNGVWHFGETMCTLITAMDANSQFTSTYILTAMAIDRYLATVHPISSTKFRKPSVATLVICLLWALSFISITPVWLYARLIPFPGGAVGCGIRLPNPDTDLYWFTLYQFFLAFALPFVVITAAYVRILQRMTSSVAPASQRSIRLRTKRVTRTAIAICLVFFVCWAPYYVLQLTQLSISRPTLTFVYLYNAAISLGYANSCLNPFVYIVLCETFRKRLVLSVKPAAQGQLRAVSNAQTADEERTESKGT
Intestinal-type alkaline phosphatase, sequence (P09923 whole entry): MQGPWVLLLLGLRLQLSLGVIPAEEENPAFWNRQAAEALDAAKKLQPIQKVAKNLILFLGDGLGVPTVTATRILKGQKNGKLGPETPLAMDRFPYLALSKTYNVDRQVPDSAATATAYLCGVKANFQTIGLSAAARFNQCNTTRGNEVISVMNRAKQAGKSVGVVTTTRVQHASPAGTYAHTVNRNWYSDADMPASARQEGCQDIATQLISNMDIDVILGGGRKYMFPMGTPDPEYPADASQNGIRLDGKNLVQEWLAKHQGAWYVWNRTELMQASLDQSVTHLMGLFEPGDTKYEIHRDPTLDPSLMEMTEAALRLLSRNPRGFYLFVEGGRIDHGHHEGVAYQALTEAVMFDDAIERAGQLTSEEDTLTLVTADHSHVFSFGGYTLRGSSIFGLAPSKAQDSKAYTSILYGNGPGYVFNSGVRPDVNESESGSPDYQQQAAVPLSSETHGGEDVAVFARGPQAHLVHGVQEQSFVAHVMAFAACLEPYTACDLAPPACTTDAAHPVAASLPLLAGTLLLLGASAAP

With `Cc1noc(C)c1CSc1nc2sc(C)c(C)c2c(=O)n1C1CCCC1` the EC50 [1] was 5.22 µM (active), the EC50 (Streptococcus [2]) was > 500 µM (not active) and the EC50 (Streptokinase A) was 3.31 µM (active). For the same compound, the EC50 (Streptococcus [3]) was > 150 µM (not active).

With `CC(C)Cc1cc(C(=O)N2CCCC(CO)(Cc3ccc(F)cc3F)C2)[nH]n1` (stereo not drawn) the IC50 [4] was 33 µM (not active).

With `O=C(Nc1cccc(Cl)c1)N1CCN(C/C=C/c2ccccc2)CC1` the EC50 [5] was 0.12 µM (active).

In the case of `Cc1ccc(NC(=O)c2ccncc2)cc1[N+](=O)[O-]`, the IC50 [6] is reported as > 100 µM (inactive).

In the case of `CCc1sc(C(=O)NNC(=O)CNC(=O)c2ccccc2F)cc1C`, the AC50 (HeLa) is reported as 73 µM (active).

In the case of `Cc1ccc(-c2nnc(N3CCC(C)CC3)c3ccccc23)cc1C`, the AC50 [7] is reported as 8.42 µM (active), the AC50 [8] is reported as 4.62 µM (active) and the EC50 [5] is reported as 3.35 µM (active). The AC50 [9] was 6.41 µM (active).

With `COc1ccc(C(=O)Nc2cc(F)cc(F)c2O)cc1` the IC50 (Hexokinase) was > 25 µM (inactive).
